Measurements taken from patent US20230271943A1, “COMPOUNDS AS DHODH INHIBITORS” (Nanjing Zenshine Pharmaceuticals Co., Ltd., priority 2020, published 2023).

Columns and labels:
recombinant human DHODH = recombinant human DHODH (Homo sapiens, UniProt Q02127); experiment: Biochemical enzymatic assay (DCIP bleaching); conditions: DCIP absorbance 600 nm, 60 min RT
Description: The biochemical activity of DHODH was measured by the bleaching of the dye 2,6-dichlorophenolindophenol (DCIP) (Knecht W. et al., Biochem. Pharmacol. 1998, 56, 1259-1264). The assay was conducted in buffer containing 50 mM Tris, 150 mM KCI, and 0.1% Triton® X-100 (pH 8.0). 5 ng DHODH protein in 50 µL assay buffer was mixed in a well of 96-well clear assay plate (Corning Cat#3599) with 25 µL series concentration of inhibitor at room temperature for 30mins prior to adding 25 µL substrate solution (1 mM L-Dihydroorotic acid, 0.1 mM Decylubiquinone, 0.06 mM DCIP). After incubation at RT for 60mins, absorbance at 600 nm was obtained using a PerkinElmer multimode plate-reading spectrophotometer. Purified recombinant human DHODH was purchased from R&D systems (Catalog# 10062-DD-020), L-dihydroorotic acid (Sigma, D7128), decylubiquinone (Sigma, D7911), DCIP (Sigma, D1878) and other chemicals were purchased from Sigma-Aldrich.

H1N1(XJ49) strain = experiment: Antiviral CPE assay in MDCK cells, H1N1 (XJ49); type: cell-based; conditions: Influenza A virus, H1N1, 120 h, 5 days, CCK-8, read-out: anti-H1N1 (XJ49) EC50
H7N9 strain = experiment: microbe, parasite or virus in culture; type: cell-based; conditions: Influenza A virus, H7N9, MDCK, 120 h, read-out: Anti-H7N9 EC50
A/PR/8/34 (H1N1) strain = experiment: Antiviral CPE assay in MDCK cells, A/PR/8/34 (H1N1); type: cell-based; conditions: Influenza A virus, 120 h, 5 days, CCK-8, read-out: Activity of anti-A/PR/8/34 (H1N1) EC50
MV-4-11 cells = experiment: MV-4-11 cell proliferation assay (CellTiter-Glo); type: cell-based; conditions: Homo sapiens, MV4-11, 72 h, read-out: MV-4-11 Cell Proliferation Assay IC50
Description: 5000 cells/well of MV-4-11 cells were seeded in IMDM 10% fetal calf serum (FBS, BI, Catalog#) in 96-well plates. The next day, cells were incubated with different concentrations of test compounds for 72 h. Cellular viability was analyzed using CellTiter-Glo® Luminescent Cell Viability Assay (Promega, #G7570) according to manufacturer’s instructions.

in vitro = conditions: dog
ZIKV strain = experiment: microbe, parasite or virus in culture; type: cell-based; conditions: Zika virus, Vero, 72 h, read-out: Activity of anti-ZIKV EC50

Chain of recombinant human DHODH (Q02127 whole entry): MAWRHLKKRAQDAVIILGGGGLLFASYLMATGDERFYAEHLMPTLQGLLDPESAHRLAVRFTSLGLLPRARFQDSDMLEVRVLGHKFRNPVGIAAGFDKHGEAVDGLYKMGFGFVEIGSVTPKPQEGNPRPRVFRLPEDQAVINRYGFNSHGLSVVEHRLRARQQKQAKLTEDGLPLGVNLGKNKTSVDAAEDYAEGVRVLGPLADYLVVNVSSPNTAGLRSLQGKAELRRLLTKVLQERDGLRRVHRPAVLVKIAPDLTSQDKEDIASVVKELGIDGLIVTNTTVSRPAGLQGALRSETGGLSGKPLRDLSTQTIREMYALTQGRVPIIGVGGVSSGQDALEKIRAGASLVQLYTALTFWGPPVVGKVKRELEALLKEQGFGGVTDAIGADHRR

CCn1c(CO)nn(-c2cc3c(cc2F)c(=O)c(-c2c(F)cccc2Cl)nn3C(C)C(F)(F)F)c1=O (stereo not shown) [Compound 1, 3-(2-chloro-6-fluorophenyl)-7-(4-ethyl-3-(hydroxymethyl)-5-oxo-4,5-dihydro-1H-1,2,4-triazol-1-yl)-6-fluoro-1-(1,1,1-trifluoropropan-2-yl)cinnolin-4(1H)-one]
IC50 (recombinant human DHODH): 215 nM

CCn1c(CO)nn(-c2cc3c(C(C)C)nn(-c4c(F)cccc4Cl)c(=O)c3cc2F)c1=O [Compound 4, 2-(2-chloro-6-fluorophenyl)-6-(4-ethyl-3-(hydroxymethyl)-5-oxo-4,5-dihydro-1H-1,2,4-triazol-1-yl)-7-fluoro-4-isopropylphthalazin-1(2H)-one]
EC50 (H1N1(XJ49) strain): 5.7 nM
EC50 (H7N9 strain): 14 nM
EC50 (A/PR/8/34 (H1N1) strain): 23 nM
IC50 (recombinant human DHODH): 11 nM
IC50 (MV-4-11 cells): 0.9 nM
CC50 (in vitro): > 1000 nM
EC50 (ZIKV strain): 0.37 nM

CCC(CC)O[C@@H]1C=C(C(=O)O)C[C@H](N)[C@H]1NC(C)=O [Oseltamivir acid, reference compound]
CC50 (in vitro): > 100 nM

CCn1c(CO)nn(-c2cc3c(cc2F)c(=O)c(-c2c(F)cccc2Cl)nn3C(C)C)c1=O [Compound 2, 3-(2-chloro-6-fluorophenyl)-7-(4-ethyl-3-(hydroxymethyl)-5-oxo-4,5-dihydro-1H-1,2,4-triazol-1-yl)-6-fluoro-1-isopropylcinnolin-4(1H)-one]
EC50 (A/PR/8/34 (H1N1) strain): 64 nM
IC50 (recombinant human DHODH): 97 nM
IC50 (MV-4-11 cells): 0.09 nM
CC50 (in vitro): > 1000 nM

O=C1c2c(O)c(=O)ccn2N([C@@H]2c3ccccc3SCc3c2ccc(F)c3F)[C@@H]2COCCN12 [Baloxavir, reference compound]
EC50 (A/PR/8/34 (H1N1) strain): 1.1 nM
CC50 (in vitro): 18 nM
